Read-outs that look alike come from different tables or passages of the source.
Columns and labels:
[1] = tested on: Mycosphaerella graminicola; Anamorph: Septoria tritici; assay: Leaf blotch of wheat (SEPTTR) disease control on wheat seedlings; format: in vivo; conditions: Zymoseptoria tritici, High volume application, 100 ppm
Summary of the method: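 Protective or curative format: Septoria tritici inoculation either preceded or followed fungicide application to first-leaf Yuma wheat. Severity scored 0–100%; control expressed versus untreated.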

[2] = tested on: Puccinia triticina; Synonym: Puccinia recondite f. sp. tritici; assay: Wheat brown rust (PUCCRT) disease control on wheat seedlings; format: in vivo; conditions: Puccinia triticina, High volume application, 100 ppm
Summary of the method: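 Yuma wheat grown to first fully emerged leaf was inoculated with Puccinia triticina spore suspension either before or after fungicide treatment, held overnight at 22° C. and 100% RH in darkness, then kept at 24° C. Fungicide applied by booth sprayer to run-off (acetone/water, 110 ppm Triton X-100) or as EC by track spray.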

Phakopsora pachyrhizi = assay: Asian soybean rust (PHAKPA) disease control; format: in vivo; conditions: topical, high volume
Experimental: Technical grades of materials were dissolved in acetone, which were then mixed with nine volumes of water containing 0.011% Tween 20. The fungicide solutions were applied onto soybean seedlings using an automated booth sprayer to run-off. All sprayed plants were allowed to air dry prior to further handling.
Soybean plants (variety Williams 82) were grown in soil-less Metro mix, with one plant per pot. Two weeks old seedlings were used for testing. Plants were inoculated either 3 days prior to or 1 day after fungicide treatments. Plants were incubated for 24 h in a dark dew room at 22° C. and 100% RH then transferred to a growth room at 23° C. for disease to develop. Disease severity was assessed on the sprayed leaves.

[3] = 24 h, 1 Day Protectant, read-out: SEPTTR 1DP disease control
[4] = 72 h, 3 Day Curative, read-out: SEPTTR 3DC disease control
[5] = 24 h, 1 Day Protectant, read-out: PUCCRT 1DP disease control
[6] = 72 h, 3 Day Curative, read-out: PUCCRT 3DC disease control
[7] = 24 h, 1 Day Protectant, read-out: Disease Control PHAKPA 1DP

| melting point [°C] | SMILES | pest or weed control at 100 ppm [1, 3] [%] | pest or weed control at 100 ppm [1, 4] [%] | pest or weed control at 100 ppm [2, 5] [%] | pest or weed control at 100 ppm [2, 6] [%] | pest or weed control at 25 ppm (Phakopsora pachyrhizi; [7]) [%] | pest or weed control at 25 ppm (Phakopsora pachyrhizi; 72 h, 3 Day Curative, read-out: Disease Control PHAKPA 3DC) [%] |
| --- | --- | --- | --- | --- | --- | --- | --- |
| 63 to 66 | COc1ccnc(C(=O)N[C@H]2CCC[C@H](OCC(C)C)[C@@H](OC(=O)C3CC3)[C@H](C)OC2=O)c1O [F213] | 0 to 80 | 0 to 80 | 80 to 100 | 80 to 100 | – | – |
| 61 to 63 | COc1ccnc(C(=O)N[C@H]2CCC[C@H](OC3CCCC3)[C@@H](OC3CCCC3)[C@H](C)OC2=O)c1O [F73] | 0 to 80 | 80 to 100 | 80 to 100 | 80 to 100 | – | – |
| 118 to 120 | COc1ccc(O[C@H]2CCC[C@H](NC(=O)c3nccc(OC)c3OCOC(C)=O)C(=O)O[C@@H](C)[C@@H]2OCC(C)C)cc1 [F68] | 80 to 100 | 80 to 100 | 80 to 100 | 80 to 100 | 80 to 100 | – |
| 148 to 149 | COc1ccnc(C(=O)N[C@H]2CCC[C@H](Oc3ccccc3)[C@@H](OC3CCCC3)[C@H](C)OC2=O)c1OCOC(C)=O [F80] | 80 to 100 | 80 to 100 | 80 to 100 | 80 to 100 | 80 to 100 | 80 to 100 |
| 94 to 95 | COc1ccnc(C(=O)N[C@H]2CCC[C@H](OCC(C)C)[C@@H](OCC(C)C)[C@H](C)OC2=O)c1O [F21] | 0 to 80 | 0 to 80 | 80 to 100 | 80 to 100 | – | – |
| 99 to 100 | COc1ccnc(C(=O)N[C@H]2CCC[C@H](OC3CCCC3)[C@@H](OCC(C)C)[C@H](C)OC2=O)c1O [F119] | 80 to 100 | 80 to 100 | 80 to 100 | 80 to 100 | – | – |
| 89 to 91 | COc1ccnc(C(=O)N[C@H]2CCC[C@H](Oc3ccc(F)cc3)[C@@H](Oc3ccc(F)cc3)[C@H](C)OC2=O)c1O [F50] | 80 to 100 | 0 to 80 | 80 to 100 | 80 to 100 | – | – |
| 109 to 111 | CCCO[C@H]1[C@H](C)OC(=O)[C@@H](NC(=O)c2nccc(OC)c2O)CCC[C@@H]1OCC(C)C [F212] | 0 to 80 | 0 to 80 | 80 to 100 | 80 to 100 | – | – |
| 108 to 114 | COc1ccnc(C(=O)N[C@H]2CCC[C@H](OCC(C)C)[C@@H](OCCCC(F)(F)F)[C@H](C)OC2=O)c1O [F41] | 0 to 80 | 80 to 100 | 80 to 100 | 80 to 100 | – | – |
| 65 to 67 | COc1ccnc(C(=O)N[C@H]2CCC[C@H](OCC(C)C)[C@@H](Oc3ccc(F)cc3)[C@H](C)OC2=O)c1O [F55] | 80 to 100 | 80 to 100 | 80 to 100 | 80 to 100 | – | – |
| 226 to 229 | CCCO[C@H]1[C@H](C)OC(=O)[C@@H](N)CCC[C@@H]1OCC(C)C.Cl | – | – | – | – | – | – |
| 43 to 48 | COc1ccnc(C(=O)N[C@H]2CCC[C@H](OC3CCCC3)[C@@H](OCCCC(F)(F)F)[C@H](C)OC2=O)c1O [F120] | 80 to 100 | 80 to 100 | 80 to 100 | 80 to 100 | – | – |
| 139 to 141 | COc1ccnc(C(=O)N[C@H]2CCC[C@H](Oc3ccc(F)cc3)[C@@H](OCC(C)C)[C@H](C)OC2=O)c1OCOC(C)=O [F63] | 80 to 100 | 80 to 100 | 80 to 100 | 80 to 100 | – | – |

Source: US9681664B2, “Macrocyclic picolinamides as fungicides” (Dow Agrosciences LLC, priority 2012, dated 2017)
